The record followed here is paper PMC12530843, “Identification of a New Interesting BAG3 Modulator Able to Disrupt Cancer‐Related Pathways” (Chemmedchem, 2025).

The structures appear in SMILES notation. Like-named read-outs stand apart in the source and are kept apart here.

Data set [1] concerns HeLa cells. Nature of the data set: MTT cell viability, HeLa. The data set is classed as cell-based. On the procedure: (§1) Human cell lines of lung adenocarcinoma (A549), cervical carcinoma (HeLa), malignant melanoma (A375), breast adenocarcinoma (MCF7), and immortalized human keratinocytes (HaCaT) were cultured in high‐glucose DMEM supplemented with FBS (10%, v/v), glutamine (2 mM L^−1), penicillin (100 U mL^−1), and streptomycin ([…]). Cells were maintained at 37 °C in a humidified 5% CO2 atmosphere and subcultured every 2 days to maintain logarithmic growth. The human cell lines were kindly donated by Prof. Ornella Moltedo, Department of Pharmacy, University of Salerno.^[ [15] ^, [44] ^]
Cell viability was evaluated using a colorimetric assay to measure mitochondrial metabolic activity through the reduction of 3‐[4,5‐dimethylthiazol‐2,5‐diphenyl‐2H‐tetrazolium bromide (MTT) to purple formazan. Stock solutions of SP18 and compounds 1, 2, 5–8 (50 mM in DMSO) were stored at −20 °C in the dark and diluted immediately before addition to the sterile culture medium. The final concentration of DMSO for the tested compounds was 0.1%, which was consistent with the percentage of DMSO used in the negative control. A549 (3.5 × 10³ cells well^−1), HeLa (3.5 × 10³ cells well^−1), A375 (5.0 × 10³ cells well^−1), and MCF7 (3.5 × 10³ cells well^−1) cells were seeded in triplicate in 96‐well plates. After 24 h to allow for attachment, cells were treated with various concentrations of the compounds (10 and 50 µM), using 0.1% (v/v) DMSO as a negative control and 10% (v/v) DMSO as a positive control following treatment, 20 μL of MTT solution (5 mg mL^−1 in PBS) were added to each well, and cells were incubated for 3 h at 37 °C. Formazan crystals were then dissolved in 100 μL of a buffer containing 50% (v/v) N,N‐dimethylformamide and 20% SDS (pH 4.5), and absorbance was measured at 570 nm using a Multiskan GO Microplate Spectrophotometer (Thermo Fisher Scientific, USA).^[ [44] ^] […] IC50 values, defined as the concentration causing 50% inhibition of cell survival, were calculated and compared to DMSO‐treated controls using GraphPad Prism 8.0 software via nonlinear regression. IC50 values for SP18 and compound 2 were also determined in HaCaT cells (5.0 × 10³ cells well^−1) after 48 or 72 h of treatment.^[ [15] ^]

Data set [2] concerns HeLa cells. Kind of data set: Cell cycle / hypodiploid nuclei by PI flow cytometry. It counts as cell-based, human. The procedure:
Hypodiploid nuclei were analyzed by propidium iodide (PI) staining using flow cytometry. HeLa cells (1 × 10^5 cells well^−1) were cultured in 12‐well plates and allowed to adhere for 24 h. The medium was then refreshed, and cells were treated with SP18 (0.75, 1.5, 3, 6, and 12 µM) for 48 h or compound 2 (10, 30, and 50 µM) for 72 h, with 0.1% (v/v) DMSO as a control. The final concentration of DMSO for the tested compounds was 0.1%, which is consistent with the percentage of DMSO used in the negative control. Following treatment, the culture medium was replaced, and cells were washed twice with PBS before being resuspended in 500 μL of a solution containing 50 mg L^−1 PI, 0.1% (w/v) sodium citrate, and 0.1% Triton X‐100. To include both dead and live cells in the analysis, the culture medium and PBS washes were centrifuged, and the resulting cell pellets were combined with the main cell suspension. Cells were then incubated at 4 °C for 30 min in the dark, and nuclei were analyzed using a Becton Dickinson FACScan flow cytometer (Franklin Lakes, USA) with Cell Quest software. DNA content was recorded, and cellular debris was excluded by adjusting the forward scatter threshold. The percentage of cells in the hypodiploid region (sub‐G0) and those in the G1, S, and G2 phases were calculated.^[ [45] ^] (See Figure S57–S58, Supporting Information).

The subject of the next data set is HaCaT cells. Nature of the data set: MTT cell viability, HaCaT healthy keratinocytes. The data set is classed as cell-based, human. The procedure: as §1
Cell viability was evaluated using a colorimetric assay to measure mitochondrial metabolic activity through the reduction of 3‐[4,5‐dimethylthiazol‐2,5‐diphenyl‐2H‐tetrazolium bromide (MTT) to purple formazan. Stock solutions of SP18 and compounds 1, 2, 5–8 (50 mM in DMSO) were stored at −20 °C in the dark and diluted immediately before addition to the sterile culture medium. The final concentration of DMSO for the tested compounds was 0.1%, which was consistent with the percentage of DMSO used in the negative control. […] Formazan crystals were then dissolved in 100 μL of a buffer containing 50% (v/v) N,N‐dimethylformamide and 20% SDS (pH 4.5), and absorbance was measured at 570 nm using a Multiskan GO Microplate Spectrophotometer (Thermo Fisher Scientific, USA).^[ [44] ^] […]

The next data set addresses T1, BAG3-BD (Homo sapiens, UniProt O95817).
T1 construct: the BAG3 domain (BAG3‐BD) was sourced from ARETA International S.r.l; (Gerenzano, Italy); purchased ARETA International S.r.l
T1 sequence (O95817 421-498 limits assumed): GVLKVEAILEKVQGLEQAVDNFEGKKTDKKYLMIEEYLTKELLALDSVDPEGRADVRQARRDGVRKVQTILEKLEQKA
Kind of data set: SPR binding on BAG3 BAG domain. To be noted: Biacore T200, 25 °C, 1:1 model; for Kd: read-out: BAG3–BD KD ± SD. On the procedure:
(§2) Recombinant human BAG3 protein (Bcl2‐associated athanogene 3) was obtained from Novus Biologicals (Littleton, Colorado), while the BAG3 domain (BAG3‐BD) was sourced from ARETA International S.r.l. (Gerenzano, Italy). We used (Z)‐ethyl 2‐(5‐(3,4‐dihydroxybenzylidene)‐2,4‐dioxothiazolidin‐3‐yl)acetate (LK4), a BAG3 inhibitor previously identified by our group.^[ [13] ^] SPR spectroscopy was performed using a Biacore T200 optical biosensor with CM5 sensor chips (Cytiva, Marlborough, USA) to assess the affinity of synthesized molecules for BAG3 and BAG‐BD. BAG3 and BAG‐BD were immobilized on CM5 sensor chip using standard amine‐coupling protocol.^[ [15] ^, [42] ^, [43] ^] BAG3 protein (0.067 μg μL^−1 in 10 mM CH3COONa, pH 4.5) was immobilized at a flow rate of 10 μL min^−1, achieving a surface density of 14 kRU, while BAG3‐BD (0.38 μg μL^−1 in 10 mM CH3COONa, pH 4.5) reached a density of 4 kRU. For the experiments, BAG3 and BAG‐BD surfaces, as well as an unmodified reference surface, were prepared for simultaneous analysis. Compounds 1–10 and LK4 were initially dissolved to 10 mM in 100% DMSO, then diluted 1:20 (v/v) in PBS‐P buffer (0.2 M phosphate buffer, 27 mM KCl, 1.37 M NaCl, 0.5% surfactant P20) resulting in a final DMSO concentration of 5.0%. The compounds were injected in a concentration series (1:2 dilution, 10 different concentrations) ranging from 0 to 100 μM, using 96‐well plates. SPR experiments were conducted at 25 °C with a flow rate of 20 μL min^−1, featuring a 90 s association phase followed by a 400 s dissociation phase. Changes in mass, recorded as resonance units (RU), were used to quantify binding responses, while K D values were determined using Biaevaluation software by globally fitting the double‐referenced association and dissociation data to a 1:1 interaction model. (See Figure S43–S56, Supporting Information).

Another data set has as its target T2, BAG3 full length (Homo sapiens, UniProt O95817).
T2 construct: purchased Novus Biologicals (Littleton, Colorado)
Nature of the data set: SPR binding on full-length BAG3. To be noted: Biacore T200, 25 °C, 1:1 model; for Kd: read-out: BAG3 FULL KD ± SD. The procedure: as §2

T2 sequence (O95817 whole entry): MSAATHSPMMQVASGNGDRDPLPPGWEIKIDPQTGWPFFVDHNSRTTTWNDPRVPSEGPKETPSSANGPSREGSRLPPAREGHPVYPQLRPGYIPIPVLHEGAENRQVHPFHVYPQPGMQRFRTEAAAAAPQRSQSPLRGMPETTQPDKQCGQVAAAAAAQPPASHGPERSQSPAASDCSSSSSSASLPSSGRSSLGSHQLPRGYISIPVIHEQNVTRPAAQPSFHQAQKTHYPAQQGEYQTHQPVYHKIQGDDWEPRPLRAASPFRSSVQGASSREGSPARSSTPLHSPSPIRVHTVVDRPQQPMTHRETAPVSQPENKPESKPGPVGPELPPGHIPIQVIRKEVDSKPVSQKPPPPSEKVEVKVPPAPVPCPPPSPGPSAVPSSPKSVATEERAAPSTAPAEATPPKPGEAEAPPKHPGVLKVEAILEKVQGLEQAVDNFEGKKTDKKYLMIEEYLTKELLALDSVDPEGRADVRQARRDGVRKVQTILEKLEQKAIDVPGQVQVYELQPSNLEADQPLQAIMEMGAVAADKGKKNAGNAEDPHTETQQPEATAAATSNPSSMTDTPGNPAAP

For orientation: mortality means the percentage killed. Low values mean more survivors, high ones fewer survivors. The IC50 is the concentration at which inhibition is half-maximal. What is called Kd is the constant that tells how readily two partners part at equilibrium. Take `O=C(OCc1cn(Cc2ccc3c(c2)C(=O)c2ccccc2C3=O)nn1)c1cccc([N+](=O)[O-])c1` [Compound 2, (1‐((9,10‐Dioxo‐9,10‐dihydroanthracen‐2‐yl)methyl)‐1H‐1,2,3‐triazol‐4‐yl)methyl 3‐nitrobenzoate]: the mortality at 50 µM with HeLa cells [1] (Homo sapiens, HeLa, 50 µM, 72 h) is ~70%. Also, the IC50 with HeLa cells [1] (Homo sapiens, HeLa, 72 h of exposure, read-out: IC50 on HeLa cells) worked out at 40.8 ± 5.5 µM. Besides, in the data set on HeLa cells [2] (72 h, 10, 30 and 50 µM), the “effect on cell cycle / hypodiploid nuclei” value is listed as “induces hypodiploid nuclei formation in a concentration‐dependent manner”. For the same molecule, the “cytotoxicity on healthy HaCaT cells” value in the data set on HaCaT cells (72 h, up to 70 µM (highest concentration tested)) is on record as “no significant cytotoxicity”. For the same molecule, on BAG3-BD, the “BAG3–BD KD ± SD” value is given as “low micromolar range” and the Kd turned out to be 0.38 ± 0.05 µM. At BAG3 full length, the “BAG3 FULL KD ± SD” value was “low micromolar range” and the Kd is 1.04 ± 0.03 µM.
On to `O=C(OCc1cn(Cc2ccc(C(=O)c3ccccc3)cc2)nn1)c1cccc([N+](=O)[O-])c1` [SP18], for which the “cytotoxicity against HeLa cells (screen)” value with HeLa cells [1] (10 and 50 µM, 72 h) was “significant cytotoxicity”. Also, the half-inhibitory concentration (IC50) with HeLa cells [1] (Homo sapiens, HeLa, 48 h of treatment, read-out: IC50 against HeLa) stood at 14.8 ± 1.34 µM; in the data set with HaCaT cells (Homo sapiens, HaCaT, 48 h, seven concentrations, MTT), 22.1 ± 0.67 µM. Moreover, the “effect on cell cycle / hypodiploid nuclei” value in the data set with HeLa cells [2] (48 h, 0.75 to 12 µM) is “induces hypodiploid nuclei formation in a concentration‐dependent manner and causes an S‐phase block”. Also, the equilibrium dissociation constant (Kd) is 43.5 ± 5.09 µM at BAG3-BD and 36 ± 0.85 µM at BAG3 full length.
